# Reference: patent US20060058286A1, “Methods of treating HIV infection” (priority 2004, published 2006)
# How the values were obtained:
# HIV-1 NL4-3 [1] = assay: Two-drug combination study with Compound 1 (combination indices); format: cell-based; settings: for Combination Indices at 50% HIV Inhibition (Confidence Interval) / Combination Indices at 75% HIV Inhibition (Confidence Interval) / Combination Indices at 90% HIV Inhibition (Confidence Interval): 95% CI in parentheses; for Overall Result: overall antiviral effect of the two-drug combination with Compound 1, all ratios and effective levels
# Method: (§1) Virus and cell lines. The T-cell line, MT-2 was obtained through the AIDS Research and Reference Reagent Program, NIAID and was contributed by Dr. D. Richman. The cell line was cultured in RPMI 1640 medium supplemented with 10% fetal bovine serum, 2 mM L-glutamine and sub-cultured twice a week. The NL4-3 strain of HIV-1 was obtained from the AIDS Research and Reference Reagent Program. Both virus stocks were amplified and titered in MT-2 cells using a virus infectivity assay.
# (§2) Drug Susceptibility and Cytotoxicity Assays. For drug susceptibility assays, MT-2 cells were infected with HIV-1 NL4-3 at an MOI of 0.001, and seeded into 96-well microtiter plates (2.5×10^5 cells/ml) containing serial dilutions of test compounds. […] Each drug ratio consisted of an array of 3-fold serial dilutions, and was performed in quadruplicate. The plates were incubated at 37° C./5% CO2. The MT-2 cells infected with HIV-1 NL4-3 were incubated for 5 days. On day-five post-infection, 20 μl from each well was harvested and quantitated by a reverse transcriptase (RT) assay or an MTS assay. Cytotoxicity assays were performed using uninfected cells, exposed to the same drug combinations, and incubated for five days. Cell viability was determined by an XTT assay. The CC50 values were calculated by using the exponential form of the median effect equation as mentioned below for calculation of EC50.
# Analysis of Drug Combination Effects. For determination of CI values, drugs were diluted in a fixed ratio and multiple ratios were analyzed. The drug serial dilutions spanned a range of concentrations near the EC50 value of each compound, so that equivalent antiviral activities could be compared. Concentration-response curves were estimated for each individual drug and every combination using the median-effect equation. The equation was fit using a nonlinear regression routine (Proc Nlin) in PC SAS version 8.01 (SAS Institute Inc., SAS Version 8.01, Cary, N.C.: SAS Institute Inc., 1990).
# (§3) In this equation, Fa stands for “fraction affected,” and represents the fraction of the viral load that has been inactivated.
# To assess antiviral effects of different drug combination treatments, combination indices (CIs) were calculated according to Chou and Rideout. The combination index was computed as CI=[D]1/[Dm]1+[D]2/[Dm]2
# In this equation [Dm]1 and [Dm]2 are the concentrations of drugs that would individually produce a specific level of effect, while [D]1 and [D]2 are the concentrations of drugs in combination that would produce the same level of effect.
# Theoretically, additivity is implied if the CI is equal to one, synergy if the CI is less than one, and antagonism if the CI is greater than one. […] At best, we can construct a range that contains the likely values for the CI, given the noise in the data. In this report, these ranges are reported in parentheses next to each point estimate of the CI. […] If the range fell entirely above 1.0, we would infer antagonistic behavior. If the range were to include 1.0, we would infer additivity.
# HIV-1 NL4-3 [2] = assay: microbe, parasite or virus in culture; settings: Human immunodeficiency virus 1, NL43, MT2, 120 h
# Method: as §1, §2, §3
# In carrying out the combination experiments below, the EC50 for Compound 1 and each comparator compound was determined during the course of each study, and used in the subsequent data analysis.
# [3] = combination with Compound 1, EC50 ratio 1:1 (Compound 1:comparator)
# [4] = combination with Compound 1, EC50 ratio 1:2.5 (Compound 1:comparator)
# [5] = combination with Compound 1, EC50 ratio 2.5:1 (Compound 1:comparator)
Compound,Combination Indices at 50% HIV Inhibition (Confidence Interval) (HIV-1 NL4-3 [1]; [3]),Combination Indices at 75% HIV Inhibition (Confidence Interval) (HIV-1 NL4-3 [1]; [3]),Combination Indices at 90% HIV Inhibition (Confidence Interval) (HIV-1 NL4-3 [1]; [3]),Combination Indices at 50% HIV Inhibition (Confidence Interval) (HIV-1 NL4-3 [1]; [4]),Combination Indices at 75% HIV Inhibition (Confidence Interval) (HIV-1 NL4-3 [1]; [4]),Combination Indices at 90% HIV Inhibition (Confidence Interval) (HIV-1 NL4-3 [1]; [4]),Combination Indices at 50% HIV Inhibition (Confidence Interval) (HIV-1 NL4-3 [1]; [5]),Combination Indices at 75% HIV Inhibition (Confidence Interval) (HIV-1 NL4-3 [1]; [5]),Combination Indices at 90% HIV Inhibition (Confidence Interval) (HIV-1 NL4-3 [1]; [5]),Overall Result (HIV-1 NL4-3 [1]),EC50 (HIV-1 NL4-3 [2]),other results
"Nc1nc(NC2CC2)c2ncn([C@H]3C=C[C@@H](CO)C3)c2n1 [Abacavir, abacavir]","0.66 (0.48, 0.84)","0.89 (0.55, 1.91)","1.20 (0.48, 1.91)","0.58 (0.45, 0.71)","0.92 (0.62, 1.21)","1.46 (0.72, 2.20)","0.65 (0.44, 0.86)","0.88 (0.49, 1.28)","1.20 (0.36, 2.05)",Additive,0.74 µM,combination effect at the 50% effective level (HIV-1 NL4-3 [1]; combination with Compound 1): synergy; combination effect at the 75% and 90% effective levels (HIV-1 NL4-3 [1]; combination with Compound 1): additivity
"CC(C)CN(C[C@@H](O)[C@H](Cc1ccccc1)NC(=O)O[C@H]1CCOC1)S(=O)(=O)c1ccc(N)cc1 [Amprenavir, amprenavir]","0.37 (0.24, 0.49)","0.53 (0.28, 0.78)","0.95 (0.24, 1.67)","0.37 (0.27, 0.48)","0.56 (0.33, 0.78)","1.05 (0.38, 1.71)","1.17 (0.91, 1.43)","0.87 (0.60, 1.13)","0.74 (0.38, 1.10)",Additive-,0.042 µM,Overall Result (HIV-1 NL4-3 [1]; listed as amprenavir): additive to synergistic
"COC(=O)N[C@H](C(=O)N[C@@H](Cc1ccccc1)[C@@H](O)CN(Cc1ccc(-c2ccccn2)cc1)NC(=O)[C@@H](NC(=O)OC)C(C)(C)C)C(C)(C)C [Atazanavir, atazanavir]","0.64 (0.54, 0.73)","0.60 (0.49, 0.72)","0.59 (0.43, 0.75)","0.91 (0.81, 1.20)",0.90 (0.70 1.10),"0.90 (0.57, 1.23)","1.01 (0.80, 1.19)","1.02 (0.77, 1.28)","1.09 (0.67, 1.50)",Additive-,0.009 µM,Overall Result (HIV-1 NL4-3 [1]; listed as atazanavir): additive to synergistic
"CON(Cc1ccc(F)cc1)C(=O)/C=C(\O)C(=O)O [Compound 1, (Z)-3-[(4-Fluoro-benzyl)-methoxy-carbamoyl]-2-hydroxy-acrylic acid]",–,–,–,–,–,–,–,–,–,synergistic or additive-synergistic,0.155 µM,–
COc1ncc(OC)c2c(C(=O)C(=O)N3CCN(C(=O)c4ccccc4)CC3)c[nH]c12 [Compound 3],"0.92 (0.77, 1.06)","0.90 (0.70, 1.10)","0.89 (0.58, 1.21)","0.71 (0.60, 0.82)","0.66 (0.51, 0.80)","0.61 (0.40, 0.82)","0.41 (0.36, 0.47)","0.41 (0.33, 0.48)","0.40 (0.28, 0.52)",synergistic to additive,0.001 µM,combination effect at the 13:1 and 82.5:1 molar ratios (HIV-1 NL4-3 [1]; combination with Compound 1): moderate synergy; combination effect at the 33:1 molar ratio (HIV-1 NL4-3 [1]; combination with Compound 1): additivity
"CC(C)Nc1cccnc1N1CCN(C(=O)c2cc3cc(NS(C)(=O)=O)ccc3[nH]2)CC1 [Delavirdine, delavirdine]","0.64 (0.50, 0.78)","0.59 (0.41, 0.78)","0.58 (0.30, 0.85)","0.56 (0.47, 0.64)","0.41 (0.32, 0.50)","0.31 (0.20, 0.41)","0.52 (0.44, 0.60)","0.44 (0.34, 0.54)","0.39 (0.26, 0.53)",Synergistic,0.05 µM,Overall Result (HIV-1 NL4-3 [1]; listed as delavirdine): strong synergistic effects
"O=c1[nH]cnc2c1ncn2[C@H]1CC[C@@H](CO)O1 [Didanosine, didanosine]","0.20 (0.14, 0.25)","0.27 (0.17, 0.37)","0.40 (0.16, 0.64)","0.16 (0.12, 0.20)","0.21 (0.14, 0.28)","0.31 (0.13, 0.49)","0.31 (0.27, 0.36)","0.32 (0.26, 0.39)","0.35 (0.23, 0.47)",Synergistic,0.27 µM,Overall Result (HIV-1 NL4-3 [1]; listed as didanosine): synergistic
"O=C1Nc2ccc(Cl)cc2[C@@](C#CC2CC2)(C(F)(F)F)O1 [Efavirenz, efavirenz]","0.57 (0.44, 0.70)","0.56 (0.38, 0.74)","0.56 (0.28, 0.84)","0.49 (0.36, 0.62)","0.54 (0.34, 0.75)","0.61 (0.26, 0.97)","0.60 (0.45, 0.74)","0.51 (0.33, 0.68)","0.43 (0.20, 0.67)",Synergistic,0.0015 µM,Overall Result (HIV-1 NL4-3 [1]; listed as efavirenz): strong synergistic effects
"Nc1nc(=O)n([C@@H]2CS[C@H](CO)O2)cc1F [Emtricitabine, emtricitabine]","0.52 (0.44, 0.59)","0.40 (0.32, 0.48)","0.32 (0.22, 0.41)","0.74 (0.63, 0.84)","0.64 (0.52, 0.77)","0.57 (0.39, 0.75)","0.49 (0.42, 0.56)","0.34 (0.28, 0.41)","0.25 (0.17, 0.33)",Synergistic,0.11 µM,Overall Result (HIV-1 NL4-3 [1]; listed as emtricitibine): synergistic
